Where two headings read alike, the source gives them in different places.
Columns and labels:
[1] = test system: UGT2B4/UGT2B7 (NAF glucuronidation); assay: Inhibition of the glucuronidation of NAF enantiomers by specific UGT inhibitors in pooled HLM; settings: human, pooled human liver microsomes, pH 7.5, probe R(+)-NAF 50 μM, S(-)-NAF 20 μM
[2] = rat, ref Himmel, 1994, cited from earlier work
[3] = human, after oral treatment; no reference given; cited from earlier work
animals = test system: animals; set-up: method as in Himmel, 1994; settings: 100 mg/day, ref Himmel, 1994; cited from earlier work
[4] = human, ref Himmel, 1994, cited from earlier work
UGT2B7 = target: T1, UGT2B7 (Homo sapiens, UniProt P16662); assay: Kinetics of NAF enantiomer glucuronidation by recombinant UGT2B7; format: in vitro ADME; set-up: purchased BD Gentest
T1 sequence (P16662 24-529): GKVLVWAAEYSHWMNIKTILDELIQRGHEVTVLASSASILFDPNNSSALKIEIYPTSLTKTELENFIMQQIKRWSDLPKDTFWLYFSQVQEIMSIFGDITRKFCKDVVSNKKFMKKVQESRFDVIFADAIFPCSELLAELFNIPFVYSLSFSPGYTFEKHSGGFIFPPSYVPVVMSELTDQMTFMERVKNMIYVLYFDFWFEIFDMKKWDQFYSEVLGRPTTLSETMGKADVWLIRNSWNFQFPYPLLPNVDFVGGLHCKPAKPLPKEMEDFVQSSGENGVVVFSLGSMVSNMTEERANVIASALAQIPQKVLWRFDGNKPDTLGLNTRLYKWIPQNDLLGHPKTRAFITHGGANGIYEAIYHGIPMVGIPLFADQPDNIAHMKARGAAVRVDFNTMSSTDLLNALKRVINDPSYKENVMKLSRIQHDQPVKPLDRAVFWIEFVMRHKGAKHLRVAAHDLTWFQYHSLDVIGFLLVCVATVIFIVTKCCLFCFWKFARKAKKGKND
Protocol: (§1) All glucuronidation assays were conducted in an incubation volume of 200 μL. Incubations were performed at 37°C in 50 mM Tris–HCl buffer (pH 7.5) with 10 mM magnesium chloride, 1 mg protein/mL of enzyme (microsomes and recombinant human UGTs), alamethicin (100 μg of alamethicin/mg microsomal protein), and NAF enantiomers (2.5–80 μM). The reaction was initiated by the addition of UDPGA (5 mM) and incubated at 37°C in a shaking water bath for 45 min. The reaction was terminated by the addition of 200 μL of ice-cold acetonitrile containing the IS (1 μM) and then centrifuged at 5000 ×g for 10 min at 4°C. The supernatant fraction was injected into the RRLC-MS/MS apparatus. Protein concentration (0.5–2 mg/mL) and incubation time (15–180 min) were optimized in preliminary studies to be within initial linear rate conditions.
(§2) Kinetic parameters were assessed in the HLM, RLM, HKM, RKM, and recombinant human UGTs (UGT2B4, 2B7, and 1A9).

[5] = set-up: method as in Liu et al., 2017; settings: rat plasma; ref Liu et al., 2017; cited from earlier work
[6] = test system: human liver microsomes (HLM); assay: Kinetics of NAF enantiomer glucuronidation by human liver microsomes; format: in vitro ADME
Protocol: as §1, §2

[7] = test system: human kidney microsomes (HKM); assay: Kinetics of NAF enantiomer glucuronidation by human kidney microsomes; format: in vitro ADME
Protocol: as §1, §2

recombinant human UGT1A9 = target: T2, recombinant human UGT1A9 (Homo sapiens, UniProt O60656); assay: Kinetics of NAF enantiomer glucuronidation by recombinant UGT1A9; format: in vitro ADME
T2 construct: purchased BD Gentest
T2 sequence (O60656 26-530): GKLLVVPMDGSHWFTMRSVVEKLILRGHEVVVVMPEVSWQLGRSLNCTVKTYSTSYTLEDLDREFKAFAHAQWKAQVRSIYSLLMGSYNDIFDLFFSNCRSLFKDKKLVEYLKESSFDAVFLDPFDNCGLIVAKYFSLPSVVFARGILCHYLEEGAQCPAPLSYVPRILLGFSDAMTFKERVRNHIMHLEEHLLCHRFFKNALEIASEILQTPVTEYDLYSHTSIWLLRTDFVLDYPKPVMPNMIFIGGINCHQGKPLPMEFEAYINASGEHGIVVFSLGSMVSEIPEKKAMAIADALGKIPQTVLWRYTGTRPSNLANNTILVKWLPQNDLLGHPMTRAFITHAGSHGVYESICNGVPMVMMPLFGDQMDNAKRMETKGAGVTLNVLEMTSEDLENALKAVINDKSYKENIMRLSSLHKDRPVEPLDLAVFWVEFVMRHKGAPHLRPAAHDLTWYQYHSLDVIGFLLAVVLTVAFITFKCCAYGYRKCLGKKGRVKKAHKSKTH
Protocol: as §1, §2

recombinant human UGT2B4 = target: T3, recombinant human UGT2B4 (Homo sapiens, UniProt P06133); assay: Kinetics of NAF enantiomer glucuronidation by recombinant UGT2B4; format: in vitro ADME
T3 construct: purchased BD Gentest
T3 sequence (P06133 24-528): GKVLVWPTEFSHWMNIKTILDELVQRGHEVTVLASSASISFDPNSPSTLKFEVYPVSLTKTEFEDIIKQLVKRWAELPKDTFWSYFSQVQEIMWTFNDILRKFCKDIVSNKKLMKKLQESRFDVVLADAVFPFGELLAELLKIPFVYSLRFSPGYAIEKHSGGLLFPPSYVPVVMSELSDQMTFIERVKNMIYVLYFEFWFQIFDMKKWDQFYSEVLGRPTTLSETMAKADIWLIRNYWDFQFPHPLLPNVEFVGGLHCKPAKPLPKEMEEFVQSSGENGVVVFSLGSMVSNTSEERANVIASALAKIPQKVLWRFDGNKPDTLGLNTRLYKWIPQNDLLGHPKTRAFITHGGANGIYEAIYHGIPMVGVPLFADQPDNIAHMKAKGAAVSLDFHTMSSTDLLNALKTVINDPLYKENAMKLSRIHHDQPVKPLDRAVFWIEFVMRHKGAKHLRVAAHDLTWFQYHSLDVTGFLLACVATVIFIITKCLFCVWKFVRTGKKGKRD
Protocol: as §1, §2

[8] = test system: NAF glucuronidation in pooled HLM (UGT2B4/UGT2B7, UGT1A9); assay: Inhibition of the glucuronidation of NAF enantiomers by specific UGT inhibitors in pooled HLM; settings: inhibitor 5, 50 μM; pooled HLM
[9] = substrate: COc1ccccc1N1CCN(C[C@H](O)COc2cccc3ccccc23)CC1; assay: cells, lysate or membranes named; settings: pH 7.5, 37.0 °C
[10] = substrate: COc1ccccc1N1CCN(C[C@@H](O)COc2cccc3ccccc23)CC1; assay: cells, lysate or membranes named; settings: pH 7.5, 37.0 °C
[11] = other: NAF glucuronidation by UGT2B7
[12] = other: NAF glucuronidation by UGT2B4

Work on `OC(Cn1cncn1)(Cn1cncn1)c1ccc(F)cc1F` [Fluconazole, fluconazole] yielded an inhibition at 45 min, 0.25 mM [1] of about 35% and an inhibition at 45 min, 2.5 mM [1] of about 55%.

In the case of `COc1ccccc1N1CCN(CC(O)COc2cccc3ccccc23)CC1` (stereo not shown) [NAF, Naftopidil], the bioavailability ([2]; Liu et al., 2015, 2017) is listed as 6.8–14.5%, the bioavailability [2] is listed as 9% and the plasma levels [3] is listed as under 10 µM. The “adverse findings at high doses” value (animals) was “reduced food consumption and body weight gain, apathy, diarrhea, proteinuria, and slightly increased levels of alkaline phosphatase”, the bioavailability ([4]; Liu et al., 2015, 2017) was under 20% and the bioavailability [4] was 20%.

For `COc1ccccc1N1CCN(CC(COc2cccc3ccccc23)OC2OC(C(=O)O)C(O)C(O)C2O)CC1` (stereo not drawn) [R(+)-NAF-G], the Kinetics type (UGT2B7) is given as “Substrate inhibition”, the Vmax (UGT2B7) is given as 1043 ± 152 pmol/min/mg and the “level of glucuronide relative to parent enantiomer” value [5] is given as “six”. For the same molecule, the Kinetics type [6] was “Michaelis–Menten”, the Vmax [6] was 3330 ± 131 pmol/min/mg and the Kinetics type [7] was “Michaelis–Menten”. The Vmax [7] was 2786 ± 138 pmol/min/mg, the Kinetics type (recombinant human UGT1A9) was “Substrate inhibition” and the Vmax (recombinant human UGT1A9) was 34 ± 2 pmol/min/mg. The Kinetics type (recombinant human UGT2B4) was “Substrate inhibition” and the Vmax (recombinant human UGT2B4) was 264 ± 38 pmol/min/mg.

For `COc1ccccc1N1CCN(CC(COc2cccc3ccccc23)OC2OC(C(=O)O)C(O)C(O)C2O)CC1` (stereo not drawn) [S(-)-NAF-G], the Kinetics type (UGT2B7) is listed as “Substrate inhibition”, the Vmax (UGT2B7) is listed as 1331 ± 298 pmol/min/mg and the “level of glucuronide relative to parent enantiomer” value [5] is listed as “threefold”. For the same molecule, the Kinetics type [6] was “Michaelis–Menten”, the Vmax [6] was 3472 ± 129 pmol/min/mg and the Kinetics type [7] was “Substrate inhibition”. For the same molecule, the Vmax [7] was 1957 ± 100 pmol/min/mg, the Kinetics type (recombinant human UGT1A9) was “Michaelis–Menten” and the Vmax (recombinant human UGT1A9) was 6.0 ± 2.2 pmol/min/mg. For the same molecule, the Kinetics type (recombinant human UGT2B4) was “Substrate inhibition” and the Vmax (recombinant human UGT2B4) was 1976 ± 158 pmol/min/mg.

For `O=C(O)c1cccnc1Nc1cccc(C(F)(F)F)c1` [niflumic acid], the “Inhibition of NAF glucuronidation” value [8] was “could not inhibit NAF glucuronidation”.

B1: recombinant human UGT2B7 (Homo sapiens) (protein)
chain: T1 sequence (P16662 24-529)
With B1 the Km [9, 11] was 38 µM, the Vmax [9, 11] was 1331 pmol/min/mg and the Km [10, 11] was 21 µM. It also gave a Vmax [10, 11] of 1043 pmol/min/mg and a Vmax/Km [10, 11] of 50 µL/min/mg.

B2: recombinant human UGT2B4 (Homo sapiens) (protein)
chain: T3 sequence (P06133 24-528)
In the case of B2, the Km [9, 12] is reported as 55 µM, the Vmax [9, 12] is reported as 1976 pmol/min/mg and the Km [10, 12] is reported as 51 µM. For the same molecule, the Vmax/Km [10, 12] was 5.2 µL/min/mg.

Source: article PMC5769128, “Human UDP-Glucuronosyltransferase 2B4 and 2B7 Are Responsible for Naftopidil Glucuronidation in Vitro” (Frontiers in Pharmacology, 2018)
